From paper PMC8881573, “Inhibition of SRP-dependent protein secretion by the bacterial alarmone (p)ppGpp” (Nature Communications, 2022)

Experiments:
Format in all cases: biochemical, E. coli
[1] = system: SRP-dependent membrane insertion of YohP into INV; assay: Post-translational YohP insertion into inverted inner membrane vesicles (INV), proteinase K resistance; conditions: at 0.6 mM (p)ppGpp, 10 µM GTP
Protocol: (§1) For protein transport assay, YohP cloned in pET19b was synthesized in vitro using a purified transcription/translation system composed of cytosolic translation factors (CTF) and high salt-washed ribosomes[35],[36]. The ^35S-Methionine/^35S-Cysteine labeling mix was obtained from Perkin Elmer (Wiesbaden, Germany). INVs of E. coli cells were prepared by sucrose gradient centrifugation of cell extracts as described[76] and resuspended in INV buffer (50 mM triethanolamine acetate, pH 7.5, 200 mM sucrose, 1 mM DTT). […] The supernatant containing YohP was then incubated with INV, liposomes or SecYEG-proteoliposomes for 10 min at 37 °C in the presence of 10 µM GTP. […] Next, the samples were denatured at 56 °C for 10 min in 35 μL of TCA loading dye (prepared by mixing one part of solution III (1 M dithiothreitol) with 4 parts of solution II (6.33% (w/v) SDS, 0.083 M Tris, 30% (v/v) glycerol and 0.053% (w/v) bromophenol blue) and 5 parts of solution I (0.2 M Tris, 0.02 M EDTA pH 8)) and analyzed after separation on a modified SDS-PAGE[35] by phosphor imaging. For quantification of YohP insertion, autoradiography samples were analyzed by using the ImageQuant (GE Healthcare) software. […] Mean values and SEM values were determined by using either Excel (Microsoft Corp.) or GraphPad Prism (GraphPad Prism Corp. San Diego). […]

Ffh-NG/FtsY-NG complex = biological target: T1, Ffh-NG/FtsY-NG complex (Escherichia coli, UniProt P0AGD7+P10121, DEL297-453); assay: Analytical size-exclusion chromatography of GMPPNP-dependent Ffh/FtsY complex formation; conditions: 0.25, 0.5 or 1 mM GMPPNP
T1 construct: purified NG domains of (Ec)FtsY and (Ec)Ffh were diluted; His6 (C); made in house; host or cells: E. coli BL21 (DE3)
T1 sequence (P0AGD7 1-296, stated change not applied): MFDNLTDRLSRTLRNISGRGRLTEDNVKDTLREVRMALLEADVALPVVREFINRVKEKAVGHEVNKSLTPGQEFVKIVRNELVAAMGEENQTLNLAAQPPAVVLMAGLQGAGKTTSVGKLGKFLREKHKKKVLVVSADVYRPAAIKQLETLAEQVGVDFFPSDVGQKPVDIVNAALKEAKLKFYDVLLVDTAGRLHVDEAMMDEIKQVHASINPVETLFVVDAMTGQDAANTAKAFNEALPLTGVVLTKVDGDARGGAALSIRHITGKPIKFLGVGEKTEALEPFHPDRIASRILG
T1 sequence (P10121 197-497, stated change not applied): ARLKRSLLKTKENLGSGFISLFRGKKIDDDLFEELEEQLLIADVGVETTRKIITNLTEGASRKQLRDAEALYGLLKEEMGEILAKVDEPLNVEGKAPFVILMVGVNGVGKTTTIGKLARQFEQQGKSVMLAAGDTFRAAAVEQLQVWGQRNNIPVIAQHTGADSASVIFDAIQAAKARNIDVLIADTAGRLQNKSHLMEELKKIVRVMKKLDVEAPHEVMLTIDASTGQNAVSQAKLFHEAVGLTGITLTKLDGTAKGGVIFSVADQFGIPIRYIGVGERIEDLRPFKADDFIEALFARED
Protocol: For the analytical SEC, purified NG domains of (Ec)FtsY and (Ec)Ffh were diluted in a buffer containing 20 mM HEPES (pH 7.5), 200 mM NaCl, 20 mM MgCl2 and 20 mM KCl to a final concentration of 100 µM (Fig. 3g) and 50 µM (Fig. 3h, i) each. Indicated amounts of nucleotides were added simultaneously, and the solution was incubated for 30 min at room temperature. 100 µL were then injected at 4 °C on to a pre-equilibrated S200 300/10 GL analytical size-exclusion column (GE Healthcare, München, Germany) on an Äkta system (UNICORN 7.6; Cytiva). Data has been plotted using GraphPad Prism (GraphPad Prism Corp. San Diego).

SRP/FtsY = biological target: T2, SRP/FtsY (Escherichia coli, UniProt P0AGD7+P10121); assay: YohP insertion into SecYEG-proteoliposomes with purified SRP/FtsY, proteinase K resistance; conditions: added together with SRP/FtsY (20 ng µL−1 each), 10 µM GTP
T2 construct: (Ec)Ffh (full-length) was concentrated on a 10 kDa centrifugal filter; (Ec)FtsY (full-length) was re-buffered in HT buffer; His-tag; made in house; host or cells: E. coli
T2 sequence (P0AGD7 whole entry): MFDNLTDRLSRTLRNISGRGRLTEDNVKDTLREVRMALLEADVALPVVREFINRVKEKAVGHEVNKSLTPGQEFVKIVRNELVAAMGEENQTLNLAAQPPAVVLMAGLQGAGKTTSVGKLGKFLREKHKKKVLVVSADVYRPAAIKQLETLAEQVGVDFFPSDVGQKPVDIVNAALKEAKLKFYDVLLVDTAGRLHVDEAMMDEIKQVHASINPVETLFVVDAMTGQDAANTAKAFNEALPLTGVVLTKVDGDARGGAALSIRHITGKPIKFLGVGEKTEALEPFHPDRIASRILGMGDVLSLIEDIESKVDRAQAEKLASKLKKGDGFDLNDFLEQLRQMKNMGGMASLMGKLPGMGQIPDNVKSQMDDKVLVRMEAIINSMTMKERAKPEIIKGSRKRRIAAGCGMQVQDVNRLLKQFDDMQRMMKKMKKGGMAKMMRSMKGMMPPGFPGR
T2 sequence (P10121 whole entry): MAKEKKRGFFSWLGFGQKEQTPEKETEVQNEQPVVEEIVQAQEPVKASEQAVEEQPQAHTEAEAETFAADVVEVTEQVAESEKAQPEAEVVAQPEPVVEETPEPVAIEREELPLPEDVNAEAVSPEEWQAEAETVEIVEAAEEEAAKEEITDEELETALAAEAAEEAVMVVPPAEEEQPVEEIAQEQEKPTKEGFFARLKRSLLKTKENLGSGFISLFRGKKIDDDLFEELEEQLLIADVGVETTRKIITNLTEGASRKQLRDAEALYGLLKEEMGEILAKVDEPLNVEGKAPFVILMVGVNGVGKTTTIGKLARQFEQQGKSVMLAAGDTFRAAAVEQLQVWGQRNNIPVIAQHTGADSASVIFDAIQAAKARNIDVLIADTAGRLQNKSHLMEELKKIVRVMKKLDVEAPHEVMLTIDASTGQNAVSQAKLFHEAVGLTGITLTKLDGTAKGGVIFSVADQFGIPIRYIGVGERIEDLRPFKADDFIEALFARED
Protocol: as §1

[2] = (p)ppGpp concentrations exceeding those of GMPPNP by two-fold
[3] = at equal (p)ppGpp/GMPPNP ratios

Nc1nc2c(ncn2[C@@H]2O[C@H](COP(=O)(O)OP(=O)(O)O)[C@@H](OP(=O)(O)OP(=O)(O)O)[C@H]2O)c(=O)[nH]1 [ppGpp] was tested, and the “YohP insertion into INV” value [1] was “complete block of insertion”, the Ffh/FtsY complex formation (Ffh-NG/FtsY-NG complex; [2]) was “roughly abolished” and the Ffh/FtsY complex formation (Ffh-NG/FtsY-NG complex; [3]) was “half-inhibited”. For the same compound, the “YohP insertion into SecYEG proteoliposomes” value (SRP/FtsY) was “reduced YohP insertion into SecYEG proteoliposomes drastically”.
For Nc1nc2c(ncn2[C@@H]2O[C@H](COP(=O)(O)OP(=O)(O)OP(=O)(O)O)[C@@H](OP(=O)(O)OP(=O)(O)O)[C@H]2O)c(=O)[nH]1 [pppGpp], the “YohP insertion into INV” value [1] was “complete block of insertion”, the Ffh/FtsY complex formation (Ffh-NG/FtsY-NG complex; [2]) was “roughly abolished” and the Ffh/FtsY complex formation (Ffh-NG/FtsY-NG complex; [3]) was “half-inhibited”. The “YohP insertion into SecYEG proteoliposomes” value (SRP/FtsY) was “reduced YohP insertion into SecYEG proteoliposomes drastically”.
